The numbers were not newly measured in publication PMC9298070, “Lack of a Clinically Meaningful Drug Interaction Between the HIV‐1 Antiretroviral Agents Islatravir, Dolutegravir, and Tenofovir Disoproxil Fumarate” (Clinical Pharmacology in Drug Development, 2021), which cites them from elsewhere.

Details of this data set: method as in PMID 34452431. To be noted: cited from earlier work.

On to `C#C[C@]1(CO)O[C@@H](n2cnc3c(N)nc(F)nc32)C[C@@H]1O` [Islatravir, 4′‐Ethynyl‐2‐fluoro‐2′‐deoxyadenosine], for which the plasma protein binding entry was “low”.
